Patent publication US20040014215A1, “Synchronised arabidopsis cell suspensions and uses thereof” (priority 2000, published 2004)

Assays:
Experiment in all cases: Northern expression analysis after aphidicolin synchronisation of MM1 (maximum signal = 100%)
Format in all cases: cell-based, Arabidopsis thaliana
CycD3 = system: CycD3
Procedure: (§1) was analysed following the expression level of known cell cycle regulated genes. Synchronisation was performed as described in Example 2A, with the exception that two 7-day old cultures of the weekly sub-cultured cell suspension (210 ml each) were combined. 40 ml of combined culture was transferred into 200 ml of fresh MSS-medium in each of 10 separate flasks. After incubation for 24 hrs under conditions as described in Example 1, in the presence of 4.16 μg/ml aphidicolin, cells from 5 pooled flasks were washed through a nylon net (mesh size 47 μm) and washed with 2 litre MSS medium and shaken vigorously to remove the aphidicolin. Cells were transferred into a 50 ml plastic tube, washed again with MSS medium and centrifuged at 2500 rpm for 1 min (1075 rcf). Cells were resuspended and combined with the cells from the other 5 flasks similarly washed in a total volume of 300 ml fresh MSS-medium. 30 ml of this cell suspension was then added to 200 ml fresh MSS-medium in each of 10 separate flasks.
(§2) 1) 25 ml for Northern blot (transferred into 50 ml plastic tube, centrifuged at 2500 rpm for 1 min, the supernatant discarded, and the cell pellet shock-frozen in liquid nitrogen before storing in −80° C. freezer)
(§3) Samples were collected at the time point indicated (time of removal of aphidicolin equals time point 0 hrs) and were analysed for expression of the following genes by Northern blot:
(§4) For each probe the maximum hybridisation signal obtained was defined as 100%.

CycB1 = system: CycB1
Procedure: as §1, §2, §3, §4

CDK-b2 = system: CDK-b2
Procedure: as §1, §2, §3, §4

CycD2 = system: CycD2
Procedure: as §1, §2, §3, §4

[1] = 0 hrs after aphidicolin removal
[2] = 2 hrs after aphidicolin removal
[3] = 4 hrs after aphidicolin removal
[4] = 6 hrs after aphidicolin removal
[5] = 8 hrs after aphidicolin removal
[6] = 10 hrs after aphidicolin removal
[7] = 12 hrs after aphidicolin removal
[8] = 14 hrs after aphidicolin removal
[9] = 16 hrs after aphidicolin removal
[10] = 18 hrs after aphidicolin removal
[11] = 20 hrs after aphidicolin removal
[12] = 22 hrs after aphidicolin removal
[13] = 24 hrs after aphidicolin removal
[14] = 26 hrs after aphidicolin removal
[15] = 28 hrs after aphidicolin removal
[16] = 30 hrs after aphidicolin removal

## C[C@@]1(CO)[C@H](O)CC[C@@]2(C)[C@H]1CC[C@H]1C[C@@H]3C[C@@]12CC[C@]3(O)CO [aphidicolin]
CycD3; [1]
  CycD3 %: 12.10%
  CycD3 Band intensity: 465
CycD3; [2]
  CycD3 %: 14.46%
  CycD3 Band intensity: 555
CycD3; [3]
  CycD3 %: 43.55%
  CycD3 Band intensity: 1674
CycD3; [4]
  CycD3 %: 76.31%
  CycD3 Band intensity: 2933
CycD3; [5]
  CycD3 %: 72.80%
  CycD3 Band intensity: 2798
CycD3; [6]
  CycD3 %: 77.13%
  CycD3 Band intensity: 2964
CycD3; [7]
  CycD3 %: 85.55%
  CycD3 Band intensity: 3288
CycD3; [8]
  CycD3 %: 100.0%
  CycD3 Band intensity: 3844
CycD3; [9]
  CycD3 %: 79.41%
  CycD3 Band intensity: 3052
CycD3; [10]
  CycD3 %: 79.09%
  CycD3 Band intensity: 3040
CycD3; [11]
  CycD3 %: 94.06%
  CycD3 Band intensity: 3615
CycD3; [12]
  CycD3 %: 59.40%
  CycD3 Band intensity: 2283
CycD3; [13]
  CycD3 %: 26.53%
  CycD3 Band intensity: 1019
CycD3; [14]
  CycD3 %: 51.71%
  CycD3 Band intensity: 1987
CycD3; [15]
  CycD3 %: 64.80%
  CycD3 Band intensity: 2490
CycD3; [16]
  CycD3 %: 70.93%
  CycD3 Band intensity: 2726
CycB1; [1]
  cycB1 %: 33.18%
  cycB1 Band intensity: 636
CycB1; [2]
  cycB1 %: 62.69%
  cycB1 Band intensity: 1201
CycB1; [3]
  cycB1 %: 47.09%
  cycB1 Band intensity: 902
CycB1; [4]
  cycB1 %: 59.67%
  cycB1 Band intensity: 1143
CycB1; [5]
  cycB1 %: 69.42%
  cycB1 Band intensity: 1330
CycB1; [6]
  cycB1 %: 83.86%
  cycB1 Band intensity: 1607
CycB1; [7]
  cycB1 %: 89.57%
  cycB1 Band intensity: 1717
CycB1; [8]
  cycB1 %: 100.0%
  cycB1 Band intensity: 1917
CycB1; [9]
  cycB1 %: 76.51%
  cycB1 Band intensity: 1466
CycB1; [10]
  cycB1 %: 90.81%
  cycB1 Band intensity: 1740
CycB1; [11]
  cycB1 %: 77.04%
  cycB1 Band intensity: 1476
CycB1; [12]
  cycB1 %: 45.09%
  cycB1 Band intensity: 864
CycB1; [13]
  cycB1 %: 48.70%
  cycB1 Band intensity: 933
CycB1; [14]
  cycB1 %: 49.18%
  cycB1 Band intensity: 942
CycB1; [15]
  cycB1 %: 52.79%
  cycB1 Band intensity: 1012
CDK-b2; [1]
  CDK-b2 %: 7.78%
  CDK-b2 Band intensity: 1084
CDK-b2; [2]
  CDK-b2 %: 12.90%
  CDK-b2 Band intensity: 1796
CDK-b2; [3]
  CDK-b2 %: 8.22%
  CDK-b2 Band intensity: 1144
CDK-b2; [4]
  CDK-b2 %: 12.09%
  CDK-b2 Band intensity: 1683
CDK-b2; [5]
  CDK-b2 %: 28.47%
  CDK-b2 Band intensity: 3963
CDK-b2; [6]
  CDK-b2 %: 49.90%
  CDK-b2 Band intensity: 6947
CDK-b2; [7]
  CDK-b2 %: 87.45%
  CDK-b2 Band intensity: 12174
CDK-b2; [8]
  CDK-b2 %: 100%
  CDK-b2 Band intensity: 13921
CDK-b2; [9]
  CDK-b2 %: 55.84%
  CDK-b2 Band intensity: 7774
CDK-b2; [10]
  CDK-b2 %: 67.57%
  CDK-b2 Band intensity: 9407
CDK-b2; [11]
  CDK-b2 %: 47.80%
  CDK-b2 Band intensity: 6654
CDK-b2; [12]
  CDK-b2 %: 22.78%
  CDK-b2 Band intensity: 3172
CDK-b2; [13]
  CDK-b2 %: 13.73%
  CDK-b2 Band intensity: 1912
CDK-b2; [14]
  CDK-b2 %: 22.86%
  CDK-b2 Band intensity: 3183
CDK-b2; [15]
  CDK-b2 %: 18.55%
  CDK-b2 Band intensity: 2583
CDK-b2; [16]
  CDK-b2 %: 22.19%
  CDK-b2 Band intensity: 3089
CycD2; [1]
  CycD2 %: 11.06%
  CycD2 Band intensity: 588
CycD2; [2]
  CycD2 %: 18.49%
  CycD2 Band intensity: 984
CycD2; [3]
  CycD2 %: 14.53%
  CycD2 Band intensity: 773
CycD2; [4]
  CycD2 %: 20.73%
  CycD2 Band intensity: 1103
CycD2; [5]
  CycD2 %: 21.64%
  CycD2 Band intensity: 1151
CycD2; [6]
  CycD2 %: 32.02%
  CycD2 Band intensity: 1704
CycD2; [7]
  CycD2 %: 51.04%
  CycD2 Band intensity: 2716
CycD2; [8]
  CycD2 %: 77.14%
  CycD2 Band intensity: 4105
CycD2; [9]
  CycD2 %: 66.51%
  CycD2 Band intensity: 3539
CycD2; [10]
  CycD2 %: 100.0%
  CycD2 Band intensity: 5322
CycD2; [11]
  CycD2 %: 83.89%
  CycD2 Band intensity: 4464
CycD2; [12]
  CycD2 %: 46.62%
  CycD2 Band intensity: 2481
CycD2; [13]
  CycD2 %: 64.44%
  CycD2 Band intensity: 3429
CycD2; [14]
  CycD2 %: 68.56%
  CycD2 Band intensity: 3648
CycD2; [15]
  CycD2 %: 69.98%
  CycD2 Band intensity: 3724
CycD2; [16]
  CycD2 %: 62.66%
  CycD2 Band intensity: 3334
